Measurements published in patent US11234976B2, “Methods of using pyruvate kinase activators” (Agios Pharmaceuticals, Inc., priority 2015, dated 2022).
Where two headings read alike, the source gives them in different places.

How the values were obtained:
PK-R [1] = experiment: MAD study pharmacodynamics (blood 2,3-DPG and ATP)
PKD red cells = experiment: Ex-vivo treatment of PKD red cells; format: cell-based, human; conditions: PKD red cells treated ex-vivo
[2] = SAD study pharmacokinetics in healthy subjects; format: in vivo, human; conditions: for half-life: oral
Procedure: . Key exclusion criteria included glucose 6-phosphate dehydrogenase deficiency, blood donation, blood loss of greater than 500 mL, or transfusion of blood or plasma within three months of screening.

Drug exposure in mice = format: in vivo, C57/BL6 mice; conditions: oral gavage, 1-150 mpk, single dose and multiple dose (13 doses, BID)
Description: Dose levels tested were 1 mpk, 10 mpk, 50 mpk, and 150 mpk. Following the last dose, mice were bled to evaluate drug exposure and pharmacodynamic markers including 2,3-DPG and ATP levels, and PKR activity. […]. […]

[3] = in vivo
Description: (§2) Adverse events (AEs), laboratory parameters, ECGs, and vital signs were monitored.

[4] = SAD study safety and tolerability; format: in vivo, human
Procedure: (§1) Key exclusion criteria included glucose 6-phosphate dehydrogenase deficiency, blood donation, blood loss of greater than 500 mL, or transfusion of blood or plasma within three months of screening.

PKR reaction = experiment: PKR flux in whole blood from treated mice ([U-13C6]-glucose); format: in vivo, C57BL/6 mice; conditions: 100 mpk BID, 13 doses, oral gavage; kinetic flux model
Procedure: Whole blood was incubated with [U-^13C6]-glucose at 37° C. and the metabolite pool sizes and rate of ^13C label incorporation into glycolytic intermediates were assessed. The data were subsequently analyzed using a mathematical kinetic flux model to quantify the overall change in carbon flow through the PKR reaction.

PKR = PKR (Mus musculus, UniProt P53657)
Description: Dose levels tested were 1 mpk, 10 mpk, 50 mpk, and 150 mpk. Following the last dose, mice were bled to evaluate drug exposure and pharmacodynamic markers including 2,3-DPG and ATP levels, and PKR activity.

[5] = target: cytochrome P450 3A4 (CYP3A4) (Homo sapiens, UniProt P08684); experiment: Pre-clinical CYP3A4 induction / metabolism; format: in vitro ADME
[6] = system: recombinantly expressed PKR mutant proteins; experiment: Activation of recombinantly expressed PKR mutant proteins; format: biochemical
[7] = MAD study safety and tolerability; conditions: doses between 360 and 700 not explored
Description: as §2

[8] = MAD study pharmacokinetics in healthy subjects
PK-R [9] = system: PK-R
Procedure: as §1

[10] = single oral dose, 1, 10, 50, 150 mpk

Sequence of PKR (P53657 whole entry): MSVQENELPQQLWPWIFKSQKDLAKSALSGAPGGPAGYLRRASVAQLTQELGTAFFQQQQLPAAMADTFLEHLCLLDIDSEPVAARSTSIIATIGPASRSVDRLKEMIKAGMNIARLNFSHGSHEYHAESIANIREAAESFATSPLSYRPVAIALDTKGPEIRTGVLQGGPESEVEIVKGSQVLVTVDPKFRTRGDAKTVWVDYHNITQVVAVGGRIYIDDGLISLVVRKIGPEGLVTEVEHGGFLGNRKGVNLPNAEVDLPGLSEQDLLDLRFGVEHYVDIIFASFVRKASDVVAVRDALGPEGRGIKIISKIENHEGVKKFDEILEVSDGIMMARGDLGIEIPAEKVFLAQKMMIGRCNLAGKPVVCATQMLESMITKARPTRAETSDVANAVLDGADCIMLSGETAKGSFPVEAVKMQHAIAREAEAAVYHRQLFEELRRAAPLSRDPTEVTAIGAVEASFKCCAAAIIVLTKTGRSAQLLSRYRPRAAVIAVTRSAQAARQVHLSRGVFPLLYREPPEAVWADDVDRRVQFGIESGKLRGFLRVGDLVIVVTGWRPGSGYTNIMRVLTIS
Sequence of cytochrome P450 3A4 (CYP3A4) (P08684 whole entry): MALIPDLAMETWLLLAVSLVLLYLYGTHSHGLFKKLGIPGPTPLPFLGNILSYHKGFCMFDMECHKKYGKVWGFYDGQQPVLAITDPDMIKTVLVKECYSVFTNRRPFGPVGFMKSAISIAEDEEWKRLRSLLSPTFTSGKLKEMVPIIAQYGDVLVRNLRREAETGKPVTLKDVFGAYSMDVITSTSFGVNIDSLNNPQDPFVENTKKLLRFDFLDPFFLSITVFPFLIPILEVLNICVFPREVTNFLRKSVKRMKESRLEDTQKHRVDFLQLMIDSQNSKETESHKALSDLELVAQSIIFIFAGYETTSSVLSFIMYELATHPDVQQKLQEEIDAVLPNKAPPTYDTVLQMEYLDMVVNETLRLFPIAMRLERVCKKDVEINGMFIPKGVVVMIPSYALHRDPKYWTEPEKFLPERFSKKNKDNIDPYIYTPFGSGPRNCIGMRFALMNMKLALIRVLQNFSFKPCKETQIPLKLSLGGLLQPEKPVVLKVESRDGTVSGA

SMILES: O=C(c1ccc(NS(=O)(=O)c2cccc3cccnc23)cc1)N1CCN(CC2CC2)CC1 [Compound 1, N-(4-(4-(cyclopropylmethyl)piperazine-1-carbonyl)phenyl)quinoline-8-sulfonamide]
- effect on ATP levels after first dose (PK-R [1]; 12 hours following the first dose): minimal
- ATP levels in the blood (PK-R [1]; Days 8-14, MAD cohorts 1 and 2): substantial increases
- 2,3-DPG levels (PK-R [1]; after final dose, MAD cohorts 1 and 2): decreases in 2,3-DPG levels
- time ATP levels remained elevated (PK-R [1]; after the last dose, MAD cohorts 1 and 2): ≥ 72 h
- dose at which decrease in 2,3-DPG and increase in ATP plateau (PK-R [1]; in vivo): 360 mg q12h
- time for 2,3-DPG decrease to reach full extent (PK-R [1]; of dosing): ≤ 7 days
- time for ATP increase to reach full extent (PK-R [1]; of dosing): ≤ 10 days
- 2,3-DPG levels (PKD red cells): reduced 2,3-DPG levels
- ATP levels (PKD red cells): increased ATP levels
- PKR enzyme activity levels (PKD red cells): increased PKR enzyme activity levels
- half-life ([2]; both sexes, human, plasma, concentrations measured for 72 hours, read-out: mean apparent terminal half-life (t1/2)): 17.5 to 20.5 h
- half-life ([2]; both sexes, human, plasma, concentrations measured for 120 hours, read-out: mean apparent terminal half-life (t1/2)): 50 to 80 h
- half-life ([2]; both sexes, human, plasma, first 12 hours following dosing, read-out: apparent half-life of rapid distribution or elimination phase): 2 to 4 h
- Tmax ([2]; both sexes, human, plasma, single oral dose, SAD cohorts, read-out: median Tmax): 0.75 to 4 h
- effect of food on exposure ([2]; fed vs fasted, preliminary results): minimal effect
- exposure (mean plasma Cmax, AUC0-12 hr and AUC0-72 hr) ([2]; single doses, SAD cohorts 1-6): increased in a dose-proportional manner
- drug exposure (Drug exposure in mice): dose-proportional increase in exposure
- dose at which gastrointestinal AEs occurred ([3]; both, human, 14 days): 700 mg q12h
- severity of treatment-related AEs ([3]; both, human, 14 days): mild or moderate (only 1 grade 3 event)
- subjects with related headache ([3]; both, human, 14 days): 14%
- subjects with related nausea ([3]; both, human, 14 days): 14%
- subjects with treatment related ≥1 AEs ([3]; both, human, 14 days): 31%
- subjects with ≥1 AE ([3]; both, human, 14 days): 44%
- number of discontinuations [3]: four
- serious AEs, discontinuations due to AEs, dose-limiting toxicities ([4]; SAD and 2 completed MAD cohorts): no serious AEs, discontinuations due to AEs, or dose-limiting toxicities
- maximum tolerated dose ([4]; single oral dose 30-2500 mg): not reached
- glycolytic flux through the PKR reaction (PKR reaction): significantly increased
- ATP levels in whole blood (PKR; multiple doses (13 doses, BID), 1, 10, 50, 150 mpk): robustly increased in a dose-dependent manner
- 2,3-DPG levels in whole blood (PKR; [10]): reduction in 2,3-DPG levels
- ATP levels in whole blood (PKR; [10]): no significant changes
- role of CYP3A4 in metabolism of the compound [5]: major route of the oxidative metabolism
- CYP3A4 induction ([5]; pre-clinical data): moderate inducer
- activity of mutated PK-R enzymes ([6]; pre-clinical studies): increases the activity
- protein stability of PKR mutant proteins ([6]; recombinantly expressed PKR mutants associated with PKD): enhances the protein stability
- highest well-tolerated dose [7]: 360 mg q12h
- plasma exposure ([8]; 15-700 mg q12h, 120 mg q24h): dose dependent
- pharmacokinetic parameter values Day 14 compared with Day 1 ([8]; MAD cohorts 1 and 2 (120 mg BID, 360 mg BID)): lower on Day 14
- blood ATP levels (PK-R [9]; after a single dose, SAD study): minimal increases
- time for 2,3-DPG to return to placebo levels (PK-R [9]; after single dose): 72 h
